± gives the uncertainty stated by the source.
Assay: xn = mol fraction of the nth substance listed

Molecule `CCCCC` + CCCCCCCC has a viscosity (297.95 K, 101 kPa, x1 = 0.1048) of 0.4645 ± 0.018 mPa·s, a viscosity (297.95 K, 101 kPa, x1 = 0.1992) of 0.4431 ± 0.017 mPa·s and a viscosity (297.95 K, 101 kPa, x1 = 0.3044) of 0.4126 ± 0.016 mPa·s. The viscosity (297.95 K, 101 kPa, x1 = 0.4015) was 0.3847 ± 0.015 mPa·s, the viscosity (297.95 K, 101 kPa, x1 = 0.5066) was 0.3498 ± 0.014 mPa·s and the viscosity (297.95 K, 101 kPa, x1 = 0.5998) was 0.3216 ± 0.013 mPa·s. For the same molecule, the viscosity (297.95 K, 101 kPa, x1 = 0.7095) was 0.2978 ± 0.012 mPa·s, the viscosity (297.95 K, 101 kPa, x1 = 0.8097) was 0.2723 ± 0.012 mPa·s and the viscosity (297.95 K, 101 kPa, x1 = 0.8946) was 0.2443 ± 0.011 mPa·s. The viscosity (298.15 K, 101.33 kPa, x1 = 0.1059) was 0.4719 ± 0.0069 mPa·s, the viscosity (298.15 K, 101.33 kPa, x1 = 0.1973) was 0.4439 ± 0.0066 mPa·s and the viscosity (298.15 K, 101.33 kPa, x1 = 0.3019) was 0.4091 ± 0.0062 mPa·s. The viscosity (298.15 K, 101.33 kPa, x1 = 0.404) was 0.3806 ± 0.0059 mPa·s, the viscosity (298.15 K, 101.33 kPa, x1 = 0.5019) was 0.3545 ± 0.0056 mPa·s and the viscosity (298.15 K, 101.33 kPa, x1 = 0.6046) was 0.3228 ± 0.0053 mPa·s. It also gave a viscosity (298.15 K, 101.33 kPa, x1 = 0.7015) of 0.2963 ± 0.005 mPa·s, a viscosity (298.15 K, 101.33 kPa, x1 = 0.8026) of 0.2702 ± 0.0047 mPa·s and a viscosity (298.15 K, 101.33 kPa, x1 = 0.9035) of 0.2454 ± 0.0044 mPa·s. It also gave a viscosity (313.05 K, 101 kPa, x1 = 0.1048) of 0.3939 ± 0.015 mPa·s, a viscosity (313.05 K, 101 kPa, x1 = 0.1992) of 0.3894 ± 0.015 mPa·s and a viscosity (313.05 K, 101 kPa, x1 = 0.3044) of 0.3676 ± 0.015 mPa·s. For the same molecule, the viscosity (313.05 K, 101 kPa, x1 = 0.4015) was 0.3504 ± 0.014 mPa·s, the viscosity (313.05 K, 101 kPa, x1 = 0.5066) was 0.3205 ± 0.013 mPa·s and the viscosity (313.05 K, 101 kPa, x1 = 0.5998) was 0.2816 ± 0.012 mPa·s.

With `CCCCC` + CCCCCCCCC the viscosity (298.15 K, 101.33 kPa, x1 = 0.0925) was 0.611 ± 0.0084 mPa·s, the viscosity (298.15 K, 101.33 kPa, x1 = 0.1995) was 0.5548 ± 0.0078 mPa·s and the viscosity (298.15 K, 101.33 kPa, x1 = 0.308) was 0.5016 ± 0.0072 mPa·s. It also gave a viscosity (298.15 K, 101.33 kPa, x1 = 0.403) of 0.4556 ± 0.0067 mPa·s, a viscosity (298.15 K, 101.33 kPa, x1 = 0.4861) of 0.4179 ± 0.0063 mPa·s and a viscosity (298.15 K, 101.33 kPa, x1 = 0.6016) of 0.3691 ± 0.0058 mPa·s. It also gave a viscosity (298.15 K, 101.33 kPa, x1 = 0.702) of 0.3268 ± 0.0053 mPa·s, a viscosity (298.15 K, 101.33 kPa, x1 = 0.8033) of 0.2892 ± 0.0049 mPa·s and a viscosity (298.15 K, 101.33 kPa, x1 = 0.904) of 0.2538 ± 0.0045 mPa·s.

Molecule `C1CCCCCCC1` + CCCCCCCCCC has a viscosity (308.15 K, 101 kPa, x1 = 0.0657) of 0.7647 ± 0.013 mPa·s, a viscosity (308.15 K, 101 kPa, x1 = 0.1971) of 0.829 ± 0.014 mPa·s and a viscosity (308.15 K, 101 kPa, x1 = 0.282) of 0.881 ± 0.015 mPa·s. For the same molecule, the viscosity (308.15 K, 101 kPa, x1 = 0.386) was 0.9331 ± 0.015 mPa·s, the viscosity (308.15 K, 101 kPa, x1 = 0.508) was 1.026 ± 0.017 mPa·s and the viscosity (308.15 K, 101 kPa, x1 = 0.5849) was 1.093 ± 0.018 mPa·s. For the same molecule, the viscosity (308.15 K, 101 kPa, x1 = 0.7031) was 1.213 ± 0.019 mPa·s, the viscosity (308.15 K, 101 kPa, x1 = 0.7984) was 1.345 ± 0.021 mPa·s and the viscosity (308.15 K, 101 kPa, x1 = 0.9053) was 1.55 ± 0.025 mPa·s. For the same molecule, the viscosity (313.15 K, 101 kPa, x1 = 0.0657) was 0.7178 ± 0.012 mPa·s, the viscosity (313.15 K, 101 kPa, x1 = 0.1971) was 0.7776 ± 0.013 mPa·s and the viscosity (313.15 K, 101 kPa, x1 = 0.282) was 0.819 ± 0.014 mPa·s. The viscosity (313.15 K, 101 kPa, x1 = 0.386) was 0.8631 ± 0.014 mPa·s, the viscosity (313.15 K, 101 kPa, x1 = 0.508) was 0.9523 ± 0.016 mPa·s and the viscosity (313.15 K, 101 kPa, x1 = 0.5849) was 1.006 ± 0.016 mPa·s. For the same molecule, the viscosity (313.15 K, 101 kPa, x1 = 0.7031) was 1.12 ± 0.018 mPa·s, the viscosity (313.15 K, 101 kPa, x1 = 0.7984) was 1.24 ± 0.02 mPa·s and the viscosity (313.15 K, 101 kPa, x1 = 0.9053) was 1.406 ± 0.022 mPa·s.

Molecule `CCCCC` + CCCCCCCCCC has a viscosity (297.95 K, 101 kPa, x1 = 0.1031) of 0.7711 ± 0.032 mPa·s, a viscosity (297.95 K, 101 kPa, x1 = 0.2082) of 0.6992 ± 0.029 mPa·s and a viscosity (297.95 K, 101 kPa, x1 = 0.3062) of 0.6136 ± 0.025 mPa·s. For the same molecule, the viscosity (297.95 K, 101 kPa, x1 = 0.408) was 0.5536 ± 0.023 mPa·s, the viscosity (297.95 K, 101 kPa, x1 = 0.5061) was 0.4708 ± 0.019 mPa·s and the viscosity (297.95 K, 101 kPa, x1 = 0.6029) was 0.4339 ± 0.018 mPa·s. It also gave a viscosity (297.95 K, 101 kPa, x1 = 0.7058) of 0.3667 ± 0.015 mPa·s, a viscosity (297.95 K, 101 kPa, x1 = 0.804) of 0.32 ± 0.013 mPa·s and a viscosity (297.95 K, 101 kPa, x1 = 0.9008) of 0.2645 ± 0.011 mPa·s. The viscosity (298.15 K, 101.33 kPa, x1 = 0.1031) was 0.7775 ± 0.02 mPa·s, the viscosity (298.15 K, 101.33 kPa, x1 = 0.2082) was 0.6969 ± 0.018 mPa·s and the viscosity (298.15 K, 101.33 kPa, x1 = 0.3062) was 0.6169 ± 0.017 mPa·s. The viscosity (298.15 K, 101.33 kPa, x1 = 0.408) was 0.5449 ± 0.015 mPa·s, the viscosity (298.15 K, 101.33 kPa, x1 = 0.5061) was 0.4818 ± 0.014 mPa·s and the viscosity (298.15 K, 101.33 kPa, x1 = 0.6029) was 0.4285 ± 0.013 mPa·s. The viscosity (298.15 K, 101.33 kPa, x1 = 0.7058) was 0.3626 ± 0.011 mPa·s, the viscosity (298.15 K, 101.33 kPa, x1 = 0.804) was 0.3143 ± 0.01 mPa·s and the viscosity (298.15 K, 101.33 kPa, x1 = 0.9008) was 0.2671 ± 0.009 mPa·s. The viscosity (313.05 K, 101 kPa, x1 = 0.1031) was 0.6585 ± 0.027 mPa·s, the viscosity (313.05 K, 101 kPa, x1 = 0.2082) was 0.5949 ± 0.025 mPa·s and the viscosity (313.05 K, 101 kPa, x1 = 0.3062) was 0.5183 ± 0.021 mPa·s. For the same molecule, the viscosity (313.05 K, 101 kPa, x1 = 0.408) was 0.4627 ± 0.019 mPa·s, the viscosity (313.05 K, 101 kPa, x1 = 0.5061) was 0.4237 ± 0.017 mPa·s and the viscosity (313.05 K, 101 kPa, x1 = 0.6029) was 0.3644 ± 0.015 mPa·s. It also gave a viscosity (313.05 K, 101 kPa, x1 = 0.7058) of 0.3189 ± 0.013 mPa·s, a viscosity (313.05 K, 101 kPa, x1 = 0.804) of 0.2801 ± 0.012 mPa·s and a viscosity (313.05 K, 101 kPa, x1 = 0.9008) of 0.2396 ± 0.01 mPa·s.

From the CheMixHub viscosity set
